Reference: US20190077724A1, “COMPOSITIONS AND METHODS FOR CROP NUTRITION” (AdvanSix Resins & Chemicals LLC, priority 2017, published 2019)

Assay: NBPT comparative solubility in solvents
Format: physicochemical
Conditions: room temperature; for maximum weight percentage of NBPT dissolved in the solvent: vials with 20, 30, 40 and 50 wt. % NBPT
Description: The solubility of the N-(n-butyl) thiophosphoric triamide (NBPT) was determined for thirteen solvents. Three of the solvents were caprolactam-derived solvents in accordance with compositions of this disclosure. The remaining ten were comparative solvents. The NBPT was 98% (HPLC) obtained from AK Scientific, Inc., Union City, California. The N-methyl-2-pyrrolidone was at least 99% pure and obtained from Sigma Aldrich of St. Louis, Missouri. The N-butyl-2-pyrrolidone was at least 98% pure and obtained from TCI America of Portland, Oregon. The methyl-5-(dimethylamino)-2-methyl-5-oxopentanoate/propylene glycol was 70-90% pure and obtained from Solvay S. A. of Princeton, N.J.
The solubility of NBPT was evaluated for each solvent by preparing four, 2 ml vials containing 20 wt. %, 30 wt. %, 40 wt. % and 50 wt. % of NBPT. To prepare the 20 wt. % vial, 0.040 g of NBPT was added to 0.160 ml of solvent. To prepare the 30 wt. % vial, 0.060 g of NBPT was added to 0.140 ml of solvent. To prepare the 40 wt. % vial, […] of NBPT was added to 0.120 ml of solvent. To prepare the 50 wt. % vial, 0.100 g of NBPT was added to 0.100 ml of solvent. The vials were capped and swirled at room temperature until no change in solubility was observed.
Solvents 1-3 are in accordance with compositions of the present disclosure. Solvents 4-13 are comparative solvents.

| Structure (SMILES) | maximum weight percentage of NBPT dissolved in the solvent | NBPT dissolving performance compared with NMP |
| --- | --- | --- |
| CCCCCCCCCC(=O)N(C)C [N,N-dimethyldecanamide] | 20% |  |
| COC(=O)CCCCC(=O)N(C)C [N,N-dimethyladipamide methyl ester] | 40% |  |
| N#CCCN1CCCCCC1=O [N-(2-cyanoethyl)caprolactam] | <20% |  |
| O=C1CCCCC1 [cyclohexanone] | 40% |  |
| CCCCN1CCCC1=O [N-butyl-2-pyrrolidone] | 50% |  |
| COC1CCCCC1 [cyclohexyl methyl ether] | <20% |  |

Other lines, results leading:

| maximum weight percentage of NBPT dissolved in the solvent | NBPT dissolving performance compared with NMP | Structure (SMILES) |
| --- | --- | --- |
| 50% | performed as well as NMP | CN1CCCCCC1=O [N-methylcaprolactam] |
| 50% | performed as well as NMP | CCN1CCCCCC1=O [N-ethylcaprolactam] |
| <20% |  | CC(=O)OC1CCCCC1 [cyclohexyl acetate] |
| 30% |  | COC(=O)C(C)CCC(=O)N(C)C (stereo not shown) [methyl-5-(dimethylamino)-2-methyl-5-oxopentanoate] |
| 40% | performed nearly as well as NMP | CCCCN1CCCCCC1=O [N-butylcaprolactam] |
| 50% |  | CN1CCCC1=O [N-methyl-2-pyrrolidone] |
| <20% |  | CCCC(=O)OC1CCCCC1 [cyclohexyl butyrate] |
